In brackets after ≈: the same amount, converted by molar mass.
Test system: Trypanosoma brucei
Assay: DNDI: Inhibition of Human African Trypanosomiasis, SBRI 427, in vitro
Type: functional, organism-based
Conditions: Trypanosoma brucei, SBRI 427; read-out: IC50

Row | Compound | IC50 [µg/mL]
1 | CCOc1ccc(-c2nc(Cn3nc(N)cc3C)co2)cc1 | 2.11 (≈ 7.07 µM)
2 | CCC(CC)N/C(=N\O)c1cccnc1Oc1ccccc1F | 0.43 (≈ 1.35 µM)
3 | O/N=C(\Nc1ccccc1)c1cccnc1OCc1ccccc1 | 1.26 (≈ 3.95 µM)
4 | Cc1ccc(/C(=N/O)NCCN2CCCC2)c(Oc2ccc(F)cc2)n1 | 37.5 (≈ 105 µM)
5 | COc1ccc(Oc2ncccc2/C(=N/O)NC2CCc3ccccc32)cc1 (stereo not drawn) | 1.51 (≈ 4.02 µM)
6 | CC(C)COc1ncccc1/C(=N/O)NC1CCC(C)CC1 (stereo not drawn) | 2.25 (≈ 7.37 µM)
7 | COc1ccc(Oc2ncccc2/C(=N/O)NCc2ccccc2C)cc1 | 2.36 (≈ 6.49 µM)
8 | CCC(CC)N/C(=N\O)c1ccc(C)nc1Oc1cccc(F)c1 | 1.56 (≈ 4.71 µM)
9 | COc1ccc(Oc2ncccc2/C(=N/O)NCc2ccccc2OC)cc1 | 2.37 (≈ 6.25 µM)
10 | Cc1ccc(/C(=N/O)N2CCCc3ccccc32)c(Oc2cccc(F)c2)n1 | 2.54 (≈ 6.73 µM)
11 | CCC(CC)N/C(=N\O)c1ccc(Oc2cc(C)cc(C)c2)nc1 | 1.61 (≈ 4.92 µM)
12 | O/N=C(\NCc1cccnc1)c1ccc(Oc2ccc3oc4ccccc4c3c2)nc1 | 3.79 (≈ 9.23 µM)
13 | CCOc1ccccc1CN/C(=N\O)c1cccnc1Oc1ccc(OC)cc1 | 1.44 (≈ 3.66 µM)
14 | O/N=C(\NCc1c(F)cccc1F)c1cccnc1Oc1ccc(F)cc1 | 2.18 (≈ 5.84 µM)
15 | Cc1cccc(Oc2nc(C)ccc2/C(=N/O)NCC(C)C)c1 | 1.67 (≈ 5.33 µM)
16 | CCOc1ccccc1CN/C(=N\O)c1ccc(C)nc1Oc1ccc(C)cc1C | 2.99 (≈ 7.37 µM)
17 | O/N=C(\NCc1c(F)cccc1F)c1cccnc1Oc1ccccc1 | 1.58 (≈ 4.45 µM)
18 | Cc1ccc(/C(=N/O)NC2CC(C)CC(C)(C)C2)c(OCC(C)C)n1 (stereo not drawn) | 1.77 (≈ 5.09 µM)
19 | O/N=C(\NC1CCC1)c1ccc(Oc2ccc3oc4ccccc4c3c2)nc1 | 1.06 (≈ 2.84 µM)
20 | CC(C)COc1ncccc1/C(=N/O)NC1CCC1 | 1.41 (≈ 5.35 µM)
21 | CSc1ccc(Oc2ccc(/C(=N/O)NC3CCC(C)CC3)cn2)cc1 (stereo not drawn) | 1.35 (≈ 3.63 µM)
22 | Cc1ccc(CN/C(=N\O)c2cccnc2Oc2cc(Cl)ccc2Cl)o1 | 1.67 (≈ 4.26 µM)

Row | Compound | IC50 [µg/mL]
23 | O/N=C(\NC1CCc2ccccc21)c1cccnc1Oc1ccc2ccccc2c1 (stereo not drawn) | 1.47 (≈ 3.72 µM)
24 | CCC(CC)N/C(=N\O)c1ccc(C)nc1Oc1ccc(F)c(Cl)c1 | > 5
25 | CC(C)c1ccc(Oc2ncccc2/C(=N/O)NCc2c(F)cccc2F)cc1 | > 5
26 | CCC(CC)N/C(=N\O)c1cccnc1Oc1ccccc1SC | 0.41 (≈ 1.19 µM)
27 | CC(C)N/C(=N\O)c1cccnc1OCC(C)(C)C | 0.9 (≈ 3.39 µM)
28 | CCC(CC)N/C(=N\O)c1cccnc1OCc1ccccc1 | 0.51 (≈ 1.63 µM)
29 | Cc1cc(Oc2ccc(/C(=N/O)N3CCCC3C)cn2)cc(C(C)C)c1 (stereo not drawn) | > 5
30 | Cc1ccc(-c2nc(Cn3nc(N)cc3C)co2)cc1 | > 5
31 | Cc1cccc(Oc2nc(C)ccc2/C(=N/O)NCC(C)(C)C)c1 | 0.32 (≈ 0.977 µM)
32 | COCC(C)N/C(=N\O)c1ccc(Oc2ccc3ccccc3c2)nc1 (stereo not drawn) | > 5
33 | CCOc1ccccc1CN/C(=N\O)c1cccnc1Oc1ccc(Cl)cc1 | 2.13 (≈ 5.35 µM)
34 | CCC(CC)N/C(=N\O)c1cccnc1Oc1ccccc1OC | 0.59 (≈ 1.79 µM)
35 | Cc1ccc(-c2nc(CN(Cc3ccccn3)Cc3ccccn3)co2)cc1 | > 5
36 | Cc1ccccc1CN/C(=N\O)c1cccnc1Oc1cccc(C)c1C | 3.57 (≈ 9.88 µM)
37 | CC1CCc2ccccc2N1/C(=N\O)c1cccnc1OCC(C)(C)C (stereo not drawn) | 0.66 (≈ 1.87 µM)
38 | Cc1cc(C)cc(CN/C(=N\O)c2cccnc2OCC(C)C)c1 | 1.94 (≈ 5.92 µM)
39 | Cc1cc(C)cc(CN/C(=N\O)c2cccnc2OCc2ccccc2F)c1 | 1.96 (≈ 5.17 µM)
40 | Cc1cc(C)cc(Oc2ccc(/C(=N/O)NC3CCC(C)CC3)cn2)c1 (stereo not drawn) | 2.93 (≈ 8.29 µM)
41 | COc1cc(C)ccc1Oc1nc(C)ccc1/C(=N/O)NCc1ccccc1 | 0.77 (≈ 2.04 µM)
42 | Cc1ccc(/C(=N/O)N(C)c2ccccc2)c(Oc2cccc(F)c2)n1 | 1.34 (≈ 3.81 µM)
43 | Cc1ccc(Oc2ncccc2/C(=N/O)NCc2c(F)cccc2F)cc1 | 1.75 (≈ 4.74 µM)
44 | CCC(CC)N/C(=N\O)c1ccc(C)nc1Oc1cc(Cl)ccc1Cl | 3.35 (≈ 8.76 µM)

Row | Compound | IC50 [µg/mL]
45 | O/N=C(\NC1CC1)c1ccc(Oc2ccc3oc4ccccc4c3c2)nc1 | 36.6 (≈ 102 µM)
46 | O/N=C(\NC1CCC1)c1ccc(Oc2c(F)c(F)cc(F)c2F)nc1 | 2.58 (≈ 7.26 µM)
47 | Cc1ccc(/C(=N/O)NCC(C)(C)C)c(OCc2cccc(F)c2)n1 | 2.11 (≈ 6.11 µM)
48 | CCc1ccc(Oc2ncccc2/C(=N/O)NC(C)COC)cc1 (stereo not drawn) | 2.17 (≈ 6.59 µM)
49 | NCCc1cn(Cc2coc(-c3ccc(Cl)cc3Cl)n2)cn1 | 4.34 (≈ 12.9 µM)
50 | COc1cccc(-c2nc(CNC34C[C@H]5C[C@@H](C3)C[C@@H](C4)C5)co2)c1 | > 5
51 | Cc1ccc(/C(=N/O)NC2CCC2)c(Oc2ccc3oc4ccccc4c3c2)n1 | 0.39 (≈ 1.01 µM)
52 | CSCCN/C(=N\O)c1cccnc1Oc1c(F)cccc1F | 4.81 (≈ 14.2 µM)
53 | COc1cccc(-c2nc(Cn3ccnc3C=O)co2)c1 | > 5
54 | O/N=C(\NC1CCc2ccccc21)c1cccnc1Oc1c(F)cccc1F (stereo not drawn) | 1.7 (≈ 4.46 µM)
55 | CC1CCC(C)N1/C(=N\O)c1cccnc1OCC(C)(C)C (stereo not drawn) | 1.25 (≈ 4.09 µM)
56 | CCC(CC)N/C(=N\O)c1cccnc1Oc1ccc(F)cc1 | 1.32 (≈ 4.16 µM)
57 | COc1ccc(Oc2ncccc2/C(=N/O)NCc2cc(C)cc(C)c2)cc1 | 2.32 (≈ 6.15 µM)
58 | CCOc1ccccc1CN/C(=N\O)c1cccnc1Oc1cc(Cl)ccc1Cl | 0.66 (≈ 1.53 µM)
59 | COCCN/C(=N\O)c1ccc(C)nc1Oc1ccc(SC)c(C)c1 | > 5
60 | COc1ccc(Oc2ncccc2/C(=N/O)NCc2ccccc2)cc1 | 3.01 (≈ 8.62 µM)
61 | CCC(C)(C)N/C(=N\O)c1ccc(Oc2ccc3oc4ccccc4c3c2)nc1 | 1.6 (≈ 4.11 µM)
62 | CCC(C)(C)N/C(=N\O)c1ccc(Oc2cc(C)cc(C)c2)nc1 | 2.36 (≈ 7.21 µM)
63 | Cc1ccc(-c2nc(CNC34C[C@H]5C[C@@H](C3)C[C@@H](C4)C5)co2)cc1 | 3.86 (≈ 12 µM)
64 | O/N=C(\NCc1cccs1)c1cccnc1Oc1ccc2oc3ccccc3c2c1 | 2.45 (≈ 5.9 µM)
65 | CCN(CC)CCCNCc1coc(-c2cccc(C)c2)n1 | 3.36 (≈ 11.1 µM)
66 | CC1CCCN1/C(=N\O)c1ccc(Oc2ccc3ccccc3c2)nc1 (stereo not drawn) | 2.32 (≈ 6.68 µM)

The next lines start with the values.

Row | IC50 [µg/mL] | Compound
67 | 0.6 (≈ 1.7 µM) | O/N=C(\NC1CCC1)c1ccnc(Oc2cc(Cl)ccc2Cl)c1
68 | > 5 | O/N=C(\NC1CCCCC1)c1ccnc(Oc2ccc(F)c(F)c2)c1
69 | > 5 | Cc1ccc(Oc2cc(/C(=N/O)N3CCCCCC3)ccn2)c(C)c1
70 | > 5 | O/N=C(/c1ccnc(Oc2cccc3c2CCCC3)c1)N1CCSCC1
71 | > 5 | O/N=C(\NC1CCCCC1)c1ccc(Oc2ccc3ccccc3c2)nc1
72 | 2.18 (≈ 7.48 µM) | CC(C)COc1ncccc1/C(=N/O)NC1CCCCC1
73 | 3.8 (≈ 10.3 µM) | O/N=C(\NC1CCCC1)c1ccc(Oc2c(F)c(F)cc(F)c2F)nc1
74 | 5 (≈ 15.1 µM) | O/N=C(\NC1CCCC1)c1ccnc(Oc2ccc(Cl)cc2)c1
75 | 2.73 (≈ 7.76 µM) | CC(C)(C)CN/C(=N\O)c1ccnc(Oc2ccc(F)c(Cl)c2)c1
76 | 2.27 (≈ 7.2 µM) | O/N=C(\NC1CCCC1)c1ccnc(Oc2cccc(F)c2)c1
77 | 3.65 (≈ 11.1 µM) | CCC(CC)N/C(=N\O)c1ccnc(Oc2ccc(OC)cc2)c1
78 | 2.4 (≈ 6.94 µM) | O/N=C(\NC1CCCCC1)c1ccnc(Oc2ccc(Cl)cc2)c1
79 | 0.4 (≈ 1.05 µM) | Cc1ccc(/C(=N/O)NC2CCCC2)c(Oc2cc(Cl)ccc2Cl)n1
80 | 4.06 (≈ 10.6 µM) | O/N=C(\NC1CCCCC1)c1ccc(Oc2c(F)c(F)cc(F)c2F)nc1
81 | 2.19 (≈ 6.9 µM) | CC(C)(C)CN/C(=N\O)c1ccnc(Oc2cccc(F)c2)c1
82 | > 5 | C=CCc1ccc(Oc2cc(/C(=N/O)NCc3ccc(OC)cc3)ccn2)c(OC)c1
83 | 1.28 (≈ 3.43 µM) | Cc1ccc(Oc2ncccc2/C(=N/O)NCc2ccccc2)c2c1CCC2
84 | 3.98 (≈ 11.1 µM) | O/N=C(\NCC1CCCCC1)c1ccnc(Oc2ccc(Cl)cc2)c1
85 | 0.37 (≈ 1.19 µM) | CCc1ccc(Oc2ccc(/C(=N/O)NCC3CC3)cn2)cc1
86 | 0.67 (≈ 1.67 µM) | Cc1ccc(/C(=N/O)NC2CCCC2)c(Oc2ccc3oc4ccccc4c3c2)n1
87 | 0.36 (≈ 1.1 µM) | Cc1ccc(Oc2cc(/C(=N/O)NCC(C)(C)C)ccn2)c(C)c1
88 | 2.91 (≈ 6.99 µM) | CC(C)c1cccc(Oc2cc(/C(=N/O)N3CCN(c4ccccc4)CC3)ccn2)c1
89 | 4.86 (≈ 12.4 µM) | Cc1ccc2cccc(Oc3cc(/C(=N/O)NC4CCC(C)CC4)ccn3)c2n1 (stereo not drawn)
90 | 4.25 (≈ 14.8 µM) | O/N=C(\NC1CC1)c1cccnc1Oc1ccccc1F
91 | 0.53 (≈ 1.57 µM) | O/N=C(\NCC1CC1)c1ccc(Oc2cccc3c2CCCC3)nc1
92 | > 5 | COc1ccc(Oc2cc(/C(=N/O)NCC(C)C)ccn2)cc1

Row | IC50 [µg/mL] | Compound
93 | 0.61 (≈ 2.05 µM) | O/N=C(\NCC1CC1)c1cccnc1OCc1ccccc1
94 | > 5 | O/N=C(\NC1CCC1)c1ccc(Oc2ccc3ccccc3c2)nc1
95 | 4.8 (≈ 14.6 µM) | COc1ccc(Oc2cc(/C(=N/O)NCC(C)(C)C)ccn2)cc1
96 | > 5 | CC1CCC(N/C(=N\O)c2ccnc(Oc3cccc4cccnc34)c2)CC1 (stereo not drawn)
97 | 0.45 (≈ 1.3 µM) | COCC(C)N/C(=N\O)c1ccnc(Oc2ccc(SC)cc2)c1 (stereo not drawn)
98 | > 5 | CN(/C(=N\O)c1ccnc(Oc2ccc(F)c(Cl)c2)c1)C1CCCCC1
99 | 10.8 (≈ 29.6 µM) | O/N=C(\NC1CCCC1)c1ccnc(Oc2cc(Cl)ccc2Cl)c1
100 | 1.26 (≈ 3.56 µM) | CCC(CC)N/C(=N\O)c1ccc(Oc2cccc3c2CCCC3)nc1
101 | 3.79 (≈ 10.4 µM) | O/N=C(\NC1CCCCC1)c1ccnc(Oc2ccc(F)c(Cl)c2)c1
102 | 1.96 (≈ 5.51 µM) | COc1ccc(Oc2ncccc2/C(=N/O)NCC2CCCCC2)cc1
103 | 3.73 (≈ 10.9 µM) | COc1ccc(Oc2cc(/C(=N/O)NC3CCCCC3)ccn2)cc1
104 | 0.35 (≈ 1.12 µM) | COc1ccccc1Oc1ncccc1/C(=N/O)NCC1CC1
105 | 1.39 (≈ 3.57 µM) | O/N=C(\NC1CCC1)c1cccnc1Oc1ccccc1OCc1ccccc1
106 | 5 (≈ 13.2 µM) | O/N=C(\NCC1CCCCC1)c1ccnc(Oc2cccc3c2CCCC3)c1
107 | 2.2 (≈ 6.29 µM) | O/N=C(\NC1CCCC1)c1ccnc(Oc2ccc(F)c(Cl)c2)c1
108 | 1.33 (≈ 3.9 µM) | COc1ccc(Oc2nc(C)ccc2/C(=N/O)NC2CCCC2)cc1
109 | > 5 | Cc1ccc(/C(=N/O)NCC2CCCO2)c(Oc2cc(Cl)ccc2Cl)n1 (stereo not drawn)
110 | 0.96 (≈ 2.58 µM) | CSc1ccc(Oc2nc(C)ccc2/C(=N/O)NC2CCCC2)cc1C
111 | 0.36 (≈ 1.07 µM) | COCC(C)N/C(=N\O)c1ccnc(Oc2ccc(Cl)cc2)c1 (stereo not drawn)
112 | 4.78 (≈ 15.3 µM) | COc1ccc(Oc2cc(/C(=N/O)NC3CCC3)ccn2)cc1
113 | 2.33 (≈ 5.36 µM) | O/N=C(/c1cccnc1Oc1cccc(C(F)(F)F)c1)N1CCN(C2CCCC2)CC1
114 | 1.24 (≈ 3.65 µM) | Cc1cccc(Oc2nc(C)ccc2/C(=N/O)NC2CCCCC2)c1
115 | 1.23 (≈ 4.08 µM) | O/N=C(\NCC1CC1)c1cccnc1Oc1ccc(F)cc1
116 | 0.37 (≈ 0.985 µM) | Cc1ccc(/C(=N/O)NC2CCCCC2)c(Oc2ccc3ccccc3c2)n1
117 | 1.77 (≈ 5.18 µM) | COCCN/C(=N\O)c1cccnc1Oc1ccc(C)c2c1CCC2
118 | 2.94 (≈ 8.82 µM) | O/N=C(\NC1CCCC1)c1ccnc(Oc2ccc(F)c(F)c2)c1

Reference: ChEMBL document CHEMBL1857833, “Screening and optimization of specific chemical series against human African Trypanosomiasis (HAT)”
